Measurements from US6716851B2, “Substituted 2-aryl-4-arylaminopyrimidines and analogs as activators or caspases and inducers of apoptosis and the use thereof” (Cytovia, Inc., priority 2000, dated 2004).
pEC50: −log10 of the molar value.

Experiments:
T-47D cells = assay: Caspase cascade activation (N-(Ac-DEVD)-N'-ethoxycarbonyl-R110 fluorogenic substrate) in T-47D cells; format: cell-based, Human; conditions: 48 h incubation; for pEC50: Homo sapiens, T47D, caspase activation potency, read-out: T47 EC50; for T47 Ratio 48 hr: caspase activity: ratio of net RFU of test compound to control
Description: (§1) Human breast cancer cell lines T-47D and ZR-75-1 were grown according to media component mixtures designated by American Type Culture Collection +10% FCS (Invitrogen Corporation, Life Technologies division), in a 5% CO2-95% humidity incubator at 37° C. T-47D and ZR-75-1 cells were maintained at a cell density between 50 and 80% confluency at a cell density of 0.1 to 0.6×10^6 cells/ml. Cells were harvested at 600× g and resuspended at 0.65×10^6 cells/ml into appropriate media +10% FCS. An aliquot of […] of cells was added to a well of a […] microtiter plate containing 2.5 μl of a 10% DMSO in RPMI-1640 media solution containing 0.16 to 100 μM of 4-(3-methoxyanilino)-2-(2-pyridinyl)-6-(trifluoromethyl)pyrimidine or other test compound (0.016 to 10 μM final). An aliquot of 22.5 μl of cells was added to a well of a 384-well microtiter plate containing 2.5 μl of a 10% DMSO in RPMI-1640 media solution without test compound as the control sample. The samples were mixed by agitation and then incubated at 37° C. for 48 h in a 5% CO2-95% humidity incubator. After incubation, the samples were removed from the incubator and 25 μl of a solution containing 14 μM of N-(Ac-DEVD)-N′-ethoxycarbonyl-R110 fluorogenic substrate (Cytovia, Inc.; WO99/18856), 20% sucrose (Sigma), 20 mM DTT (Sigma), 200 mM NaCl (Sigma), 40 mM Na PIPES buffer pH 7.2 (Sigma), and 500 μg/ml lysolecithin (Calbiochem) was added. The samples were mixed by agitation and incubated at room temperature. Using a fluorescent plate reader (Model SpectraMax Gemini, Molecular Devices), an initial reading (T=0) was made approximately 1-2 min after addition of the substrate solution, employing excitation at 485 nm and emission at 530 nm, to determine the background fluorescence of the control sample. After the 3 h incubation, the samples were read for fluorescence as above (T=3 h).
(§2) The Relative Fluorescence Unit values (RFU) were used to calculate the sample readings as follows:
(§3) RFU(T=3h)−Control RFU(T=0)=Net RFU(T=3h)
(§4) The activity of caspase cascade activation was determined by the ratio of the net RFU value for 4-(3-methoxyanilino)-2-(2-pyridinyl)-6-(trifluoromethyl)pyrimidine or other test compound to that of control samples. The EC50 (nM) was determined by a sigmoidal dose-response calculation (Prism 2.0, GraphPad Software Inc.).

ZR-75-1 cells = assay: Caspase cascade activation (N-(Ac-DEVD)-N'-ethoxycarbonyl-R110 fluorogenic substrate) in ZR-75-1 cells; format: cell-based, Human; conditions: ZR-75-1, 48 h incubation; for pEC50: Homo sapiens, caspase activation potency; for ZR Ratio 48 hr: caspase activity: ratio of net RFU of test compound to control
Description: as §1, §2, §3, §4

pEC50 (T-47D cells) | pEC50 (ZR-75-1 cells) | SMILES | T47 Ratio 48 hr (T-47D cells) | ZR Ratio 48 hr (ZR-75-1 cells)
< 5.30 | < 5.30 | COc1cccc(Nc2nc(-c3ccc(C(F)(F)F)cn3)nc(C)c2Cl)c1 [Example 15, 4-(3-Methoxyanilino)-5-chloro-6-methyl-2-[5-(trifluoromethyl)-2-pyridinyl]pyrimidine] | 2.5 | 2.7
6.54 | 6.53 | COc1cccc(Nc2cc(C)nc(-c3ccccn3)n2)c1 [Example 16, 4-(3-Methoxyanilino)-6-methyl-2-(2-pyridinyl)pyrimidine] | 19.5 | 3.3
< 5.30 | 5.31 | COc1cccc(Nc2nc(-c3ccccn3)ncc2OC)c1 [Example 18, 4-(3-Methoxyanilino)-5-methoxy-2-(2-pyridinyl)pyrimidine] | 1.9 | 7.8
6.33 | 6.67 | COc1cccc(Nc2cc(C(F)(F)F)nc(-c3cccnc3)n2)c1 [Example 19, 4-(3-Methoxyanilino)-2-(3-pyridinyl)-6-(trifluoromethyl)pyrimidine] | 16.7 | 8.9
< 5.30 | < 5.30 | COCc1cc(Nc2cccc(OC)c2)nc(-c2cccc(C)c2)n1 [Example 20, 4-(3-Methoxyanilino)-6-(methoxymethyl)-2-(3-methylphenyl)pyrimidine] | 1.6 | 1.1
> 6.81 | > 6.81 | COc1ccc(OC)c(Nc2cc(C)nc(-c3ccccn3)n2)c1 [Example 21, 4-(2,5-Dimethoxyanilino)-6-methyl-2-(2-pyridinyl)pyrimidine] | 15.5 | 12.0
< 5.30 | 5.22 | COc1cccc(Nc2cc(C)nc(-c3ccccn3)n2)c1OC [Example 22, 4-(2,3-Dimethoxyanilino)-6-methyl-2-(2-pyridinyl)pyrimidine] | 1.9 | 3.5
7.72 | 7.16 | COc1ccc(OC)c(Nc2cc(C(F)(F)F)nc(-c3cccnc3)n2)c1 [Example 38, 4-(2,5-Dimethoxyanilino)-2-(3-pyridinyl)-6-(trifluoromethyl)pyrimidine] | 8.8 | 12.4
6.28 | < 5.30 | COc1cccc(Nc2cc(C(F)(F)F)nc(-c3ccncc3)n2)c1 [Example 41, 4-(3-Methoxyanilino)-2-(4-pyridinyl)-6-(trifluoromethyl)pyrimidine] | 7.5 | 1.6
7.37 | 6.84 | COc1ccc(OC)c(Nc2cc(C(F)(F)F)nc(-c3ccncc3)n2)c1 [Example 42, 4-(2,5-Dimethoxyanilino)-2-(4-pyridinyl)-6-(trifluoromethyl)pyrimidine] | 5.8 | 2.5
< 5.30 | < 5.30 | COCc1cc(Nc2cccc(OC)c2)nc(-c2csc(C)n2)n1 [Example 44, 4-(3-Methoxyanilino)-6-(methoxymethyl)-2-(2-methyl-1-3-thiazol-4-yl)pyrimidine] | 1.6 | 1.9
6.48 | 6.41 | COCc1cc(Nc2cc(OC)ccc2OC)nc(-c2csc(C)n2)n1 [Example 45, 4-(2,5-Dimethoxyanilino)-6-(methoxymethyl)-2-(2-methyl-1-3-thiazol-4-yl)pyrimidine] | 21.6 | 17.3
< 5.30 | < 5.30 | COc1cccc(Nc2cc(N3CCOCC3)nc(-c3ccccc3)n2)c1 [Example 46, 6-Morpholino-4-(3-methoxyanilino)-2-phenyl-pyrimidine] | 1.5 | 1.4
6.76 | 6.49 | COc1ccc(Cl)c(Nc2cc(C(F)(F)F)nc(-c3cccnc3)n2)c1 [Example 50, 4-(2-Chloro-5-methoxyanilino)-2-(3-pyridinyl)-6-(trifluoromethyl)pyrimidine] | 10 | 5.3
7.54 | 7.25 | COc1ccc(C)c(Nc2cc(C(F)(F)F)nc(-c3cccnc3)n2)c1 [Example 51, 4-(5-Methoxy-2-methylanilino)-2-(3-pyridinyl)-6-(trifluoromethyl)pyrimidine] | 11 | 5.9
6.97 | 7.01 | COc1ccc(Cl)c(Nc2cc(C)nc(-c3ccccn3)n2)c1 [Example 52, 4-(2-Chloro-5-methoxyanilino)-6-methyl-2-(2-pyridinyl)pyrimidine] | 20.9 | 7.2
6.94 | 6.22 | COc1ccc(C)c(Nc2cc(C)nc(-c3ccccn3)n2)c1 [Example 53, 4-(5-Methoxy-2-methylanilino)-6-methyl-2-(2-pyridinyl)pyrimidine] | 20.4 | 6.6
7.00 | 7.00 | COc1ccc(Cl)c(Nc2cc(C(F)(F)F)nc(-c3ccncc3)n2)c1 [Example 54, 4-(2-Chloro-5-methoxyanilino)-2-(4-pyridinyl)-6-(trifluoromethyl)pyrimidine] | 10.5 | 5.9
7.68 | 7.74 | COc1ccc(C)c(Nc2cc(C(F)(F)F)nc(-c3ccncc3)n2)c1 [Example 55, 4-(5-Methoxy-2-methylanilino)-2-(4-pyridinyl)-6-(trifluoromethyl)pyrimidine] | 8.4 | 7.1
< 5.30 | < 5.30 | Cn1cc(Br)c(-c2cccc(Nc3cc(C(F)(F)F)nc(-c4cccnc4)n3)c2)n1 [Example 58, 4-[3-(4-Bromo-1-methyl-1H-pyrazol-3-yl)anilino]-2-(3-pyridinyl)-6-(trifluoromethyl)pyrimidine] | 1.5 | 1.1
< 5.30 | < 5.30 | Cc1nccc(-c2cccc(Nc3cc(C(F)(F)F)nc(-c4cccnc4)n3)c2)n1 [Example 59, 4-[3-(2-Methyl-pyrimidin-4-yl)anilino]-2-(3-pyridinyl)-6-(trifluoromethyl)pyrimidine] | 1.6 | 1.1
< 5.30 | < 5.30 | FC(F)(F)c1cc(Nc2cccc(-c3ccccc3)c2)nc(-c2cccnc2)n1 [Example 60, 4-(3-Phenylanilino)-2-(3-pyridinyl)-6-(trifluoromethyl)pyrimidine] | 1.8 | 1.4
< 5.30 | < 5.30 | O=[N+]([O-])c1cccc(-c2cccc(Nc3cc(C(F)(F)F)nc(-c4cccnc4)n3)c2)c1 [Example 61, 4-[3-(3-Nitrophenyl)anilino]-2-(3-pyridinyl)-6-(trifluoromethyl)pyrimidine] | 1.8 | 1.2
> 6.82 | – | COc1ccc(OC)c(Nc2cc(C(F)(F)F)nc(-c3cnccn3)n2)c1 [Example 76, 4-(2,5-Dimethoxyanilino)-2-(2-pyrazinyl)-6-(trifluoromethyl)pyrimidine] | 8.5 | –
6.60 | – | COc1ccc(Cl)c(Nc2cc(C(F)(F)F)nc(-c3cnccn3)n2)c1 [Example 82, 4-(2-Chloro-5-methoxyanilino)-2-(2-pyrazinyl)-6-(trifluoromethyl)pyrimidine] | 15.3 | –
6.97 | – | Oc1ccc(Cl)c(Nc2cc(C(F)(F)F)nc(-c3cnccn3)n2)c1 [Example 194, 4-(2-Chloro-5-hydroxyanilino)-2-(2-pyrazinyl)-6-trifluoromethylpyrimidine] | 11.7 | –
7.70 | – | COc1cc(Nc2cc(C(F)(F)F)nc(-c3ccccn3)n2)cc(OC)c1 [Example 195, 4-(3,5-Dimethoxyanilino)-2-(2-pyridinyl)-6-trifluoromethylpyrimidine] | 8.4 | –
6.28 | – | Cc1ccc(C)c(Nc2cc(C(F)(F)F)nc(-c3cnccn3)n2)c1 [Example 196, 4-(2,5-Dimethylanilino)-2-(2-pyrazinyl)-6-trifluoromethylpyrimidine] | 11.3 | –
